The numbers were not newly measured in patent publication US11083748B2 (priority 2003, dated 2021), which cites them from elsewhere.

The conditions of data set [1]: in vivo, iv.
The test system of data set [2] is patients. The note with it: human, in vivo.

SMILES strings stand for the structures.

What is called half-life is how long it takes for the measured level to halve. For the compound `O=C(O)CN(CCN(CC(=O)O)CC(=O)O)CC(=O)O` [EDTA, ethylenediamine tetraacetic acid], in data set [1], the “fraction of the drug remaining one hour following administration” value is on record as “one-half” and the half-life was 20 to 60 min.
On to `CC(C)(S)[C@@H](N)C(=O)O` [Penicillamine, beta,beta-dimethylcysteine], for which the solubility in water entry was “freely soluble”.
As for `O=C(O)C(S)C(S)C(=O)O` (stereo not shown) [Succimer, dimercaptosuccinic acid], the “patients with drug-induced elevations of liver transaminases (mild and transient)” value in data set [2] is “up to 10%”.
